The assay concerns the target T1, Kinesin-like protein KIF11 (Homo sapiens, UniProt P52732).
T1 sequence (P52732 whole entry): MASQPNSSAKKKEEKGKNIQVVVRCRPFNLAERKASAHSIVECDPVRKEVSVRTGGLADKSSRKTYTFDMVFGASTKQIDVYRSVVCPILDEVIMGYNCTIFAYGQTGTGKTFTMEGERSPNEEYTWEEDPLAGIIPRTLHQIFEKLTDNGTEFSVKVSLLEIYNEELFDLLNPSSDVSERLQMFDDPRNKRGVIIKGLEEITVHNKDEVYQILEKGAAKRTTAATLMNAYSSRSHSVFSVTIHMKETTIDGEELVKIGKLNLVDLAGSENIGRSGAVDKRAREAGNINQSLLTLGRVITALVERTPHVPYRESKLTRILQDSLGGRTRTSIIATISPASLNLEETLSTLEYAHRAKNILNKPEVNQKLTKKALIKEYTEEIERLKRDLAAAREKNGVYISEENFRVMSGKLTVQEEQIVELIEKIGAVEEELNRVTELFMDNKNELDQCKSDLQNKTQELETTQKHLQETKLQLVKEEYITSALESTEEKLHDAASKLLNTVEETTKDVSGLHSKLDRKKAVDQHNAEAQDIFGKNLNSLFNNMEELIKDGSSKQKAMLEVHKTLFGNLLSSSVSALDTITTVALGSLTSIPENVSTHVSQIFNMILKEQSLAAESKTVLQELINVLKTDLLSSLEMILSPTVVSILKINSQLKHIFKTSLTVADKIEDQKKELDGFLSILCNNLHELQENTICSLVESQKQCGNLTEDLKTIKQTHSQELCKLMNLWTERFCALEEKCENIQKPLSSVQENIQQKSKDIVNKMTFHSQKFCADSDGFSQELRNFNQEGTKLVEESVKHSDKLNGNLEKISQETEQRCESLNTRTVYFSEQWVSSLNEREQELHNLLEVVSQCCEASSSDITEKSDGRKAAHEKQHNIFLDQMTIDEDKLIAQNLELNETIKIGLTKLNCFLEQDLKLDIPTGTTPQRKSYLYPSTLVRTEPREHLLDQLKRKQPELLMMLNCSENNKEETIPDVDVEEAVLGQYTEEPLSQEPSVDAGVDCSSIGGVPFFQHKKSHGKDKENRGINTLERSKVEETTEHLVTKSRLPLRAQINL
The assay can be described thus: Wild-type HCT116. Particulars: pH 6.8. The source says: Cell proliferation assay for wild-type cells

Each structure is given as a SMILES string.

Take `O=C1CCc2cc(-c3ccc(C(F)(F)F)cc3)ccc2N1` [6-[4-(Trifluoromethyl)phenyl]-3,4-dihydro-2(1H)-quinolinone]: the inhibitory constant (Ki) was 1.7 nM.

For the origin of these results see BindingDB's records for doi:10.1038/nchembio.2007.34 (GlaxoSmithKline, 2007).
